Experiments:
[1] = biological target: T1, hSGLT1 D268H (Homo sapiens, UniProt P13866, D268H); test: SGLT current measurement in oocytes, hSGLT1 D268H; type: cell-based; details: 10 mM αMDG, Vm = −50 mV; oocytes, 22 °C
T1 construct: expressed in transfected cells; host or cells: Xenopus laevis oocytes injected with cRNA
T1 sequence (P13866 1-664 D268H): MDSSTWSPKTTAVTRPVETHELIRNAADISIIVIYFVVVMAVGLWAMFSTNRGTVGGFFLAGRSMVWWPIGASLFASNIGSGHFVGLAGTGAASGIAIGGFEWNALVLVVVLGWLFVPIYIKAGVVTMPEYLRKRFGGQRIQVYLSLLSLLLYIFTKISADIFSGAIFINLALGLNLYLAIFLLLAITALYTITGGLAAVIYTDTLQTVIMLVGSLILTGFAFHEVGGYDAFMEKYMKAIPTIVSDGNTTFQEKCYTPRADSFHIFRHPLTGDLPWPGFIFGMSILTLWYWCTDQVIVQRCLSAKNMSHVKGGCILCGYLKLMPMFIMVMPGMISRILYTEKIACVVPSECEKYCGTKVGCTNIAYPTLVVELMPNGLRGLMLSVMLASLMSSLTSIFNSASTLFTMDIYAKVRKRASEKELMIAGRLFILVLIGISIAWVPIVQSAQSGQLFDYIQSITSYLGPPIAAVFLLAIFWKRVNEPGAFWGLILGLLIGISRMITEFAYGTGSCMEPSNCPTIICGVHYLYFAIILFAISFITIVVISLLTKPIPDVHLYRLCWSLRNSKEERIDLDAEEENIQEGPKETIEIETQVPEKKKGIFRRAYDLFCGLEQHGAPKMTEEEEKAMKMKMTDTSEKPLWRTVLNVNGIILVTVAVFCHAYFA
Method: (§1) Xenopus laevis (Nasco) oocytes (V–VI) were prepared as previously described[20] and injected with 50 nl of cRNA (1 μg/μl). […] Briefly, oocytes were incubated for 30 min in the presence of 50 μM αMDG (5 μM [^14C]αMDG) in a buffer containing (in mM) 100 NaCl, 2 KCl, 1 MgCl2, 1 CaCl2, and 10 N-(2-hydroxyethyl)piperazine-N′-(2-ethanesulfonic acid) (HEPES)/Tris (pH 7.5). After incubation, oocytes were rinsed thoroughly with ice-cold buffer containing (mM) 100 choline Cl^–, 2 KCl, 1 MgCl2, 1 CaCl2, and 10 HEPES/Tris (pH 7.5), individually lysed with 5% sodium dodecyl sulfate, and assayed for radioactivity.
Injected oocytes were incubated at 18 °C, and after 3–4 days, two electrode voltage clamp experiments were performed as previously described. Briefly, SGLT inward glucose currents were measured as a function of the external Na^+ (0–100 mM NaCl), sugar (0–100 mM αMDG), and inhibitors (0.001–100 μM). Steady-state and hSGLT1 capacitive currents were recorded using voltage steps from a holding voltage, Vh of −60 mV, to voltages in the range of −180 to +50 mV in 20 mV increments. The apparent affinity of αMDG, K0.5, was estimated from plots of the inward current as a function of the external αMDG concentration. […] The Na^+-to-αMDG stoichiometry was determined from the reversal potential measurements using the Gibbs free energy as previously described. […]

[2] = biological target: T2, hSGLT2 wild-type (Homo sapiens, UniProt P31639); test: SGLT current measurement in oocytes, hSGLT2 wild-type (MAP17 co-injected); type: cell-based; design: expressed in transfected cells; host or cells: Xenopus laevis oocytes injected with hSGLT2 cRNA and MAP17 cRNA; details: 22 °C
T2 sequence (P31639 1-672): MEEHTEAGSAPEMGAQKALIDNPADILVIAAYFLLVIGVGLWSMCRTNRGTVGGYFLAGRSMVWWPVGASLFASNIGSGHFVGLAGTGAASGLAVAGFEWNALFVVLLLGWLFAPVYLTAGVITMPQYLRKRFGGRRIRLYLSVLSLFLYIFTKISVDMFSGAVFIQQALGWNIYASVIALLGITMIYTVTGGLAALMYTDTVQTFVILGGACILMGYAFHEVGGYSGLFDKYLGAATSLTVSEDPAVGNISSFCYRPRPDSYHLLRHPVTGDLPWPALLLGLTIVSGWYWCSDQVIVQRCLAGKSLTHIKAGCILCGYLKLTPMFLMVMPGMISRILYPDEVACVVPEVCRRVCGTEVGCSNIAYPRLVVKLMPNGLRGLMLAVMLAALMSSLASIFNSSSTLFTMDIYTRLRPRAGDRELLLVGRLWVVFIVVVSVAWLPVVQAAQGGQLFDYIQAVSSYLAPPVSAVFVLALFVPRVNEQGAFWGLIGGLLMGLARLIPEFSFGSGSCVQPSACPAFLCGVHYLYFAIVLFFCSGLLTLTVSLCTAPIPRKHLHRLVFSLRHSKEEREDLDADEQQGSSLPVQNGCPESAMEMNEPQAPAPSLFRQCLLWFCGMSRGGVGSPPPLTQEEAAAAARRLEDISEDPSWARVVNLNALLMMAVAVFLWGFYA
T2 sequence (Q13113 1-114 partner): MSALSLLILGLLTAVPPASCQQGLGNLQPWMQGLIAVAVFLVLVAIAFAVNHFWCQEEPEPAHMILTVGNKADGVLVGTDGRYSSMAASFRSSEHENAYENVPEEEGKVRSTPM
Method: as §1
Injected oocytes were incubated at 18 °C, and after 3–4 days, two electrode voltage clamp experiments were performed as previously described. Briefly, SGLT inward glucose currents were measured as a function of the external Na^+ (0–100 mM NaCl), sugar (0–100 mM αMDG), and inhibitors (0.001–100 μM). Steady-state and hSGLT1 capacitive currents were recorded using voltage steps from a holding voltage, Vh of −60 mV, to voltages in the range of −180 to +50 mV in 20 mV increments. The apparent affinity of αMDG, K0.5, was estimated from plots of the inward current as a function of the external αMDG concentration. Under our experimental conditions, K0.5 is a close approximation of the αMDG binding constant to the Na^+-bound outward conformation of SGLT. The apparent affinity for Na^+, K0.5, was estimated from plots of the αMDG inward current as a function of external Na^+ concentration. For hSGLT1 the interpretation of K0.5 is more complex owing to the presence of two Na^+ binding sites. In this case, the K0.5 is a lumped coefficient for Na^+ binding to the two sites in the outward-facing hSGLT1 conformation. […] The Na^+-to-αMDG stoichiometry was determined from the reversal potential measurements using the Gibbs free energy as previously described. The stoichiometry determinations were reinforced by estimates of αMDG and Na^+ Hill coefficients, and in some cases, by measurement of ^22Na and [^14C]αMDG uptakes under voltage clamp, [21].

## [Na+] [Na^+]
[1]
  K0.5 Na^+: 17 ± 1.2 mM
[2]
  K0.5 Na^+: 22 ± 1 mM

From PMC6286348, “Inhibitor binding mode and allosteric regulation of Na^+-glucose symporters” (Nature Communications, 2018)
